# From US20110305784A1, “Fractionated products obtained from gamboge resin, and medical uses of the same” (priority 2010, published 2011)
# Like-named read-outs stand apart in the source and are kept apart here.
# Tests used:
# [1] = test system: Human histocytic lymphoma cell U937; assay: cells; details: for CC50: U-937, read-out: LC50 (50% lethal concentration)
# Source text: (§1) The in vitro anti-cancer test was primarily used to detect the effect of a candidate drug on cancer cell proliferation. The working principle involved therein is the ability of viable cells to shift alamarBlue (AbD Serotec, UK) from its originally non-fluorescent oxidized state (non-fluorescent, blue) to a reduced form (fluorescent, red) having fluorescence via metabolic reaction. According to the fluorescent data result generated by the alamarBlue reagent thus obtained, the proliferation of the viable cells and cell activity can be quantified for detection.
# (§2) In the in vitro anti-cancer tests, a candidate drug was tested at 5 different concentrations of 0.01, 0.1, 1, 10, and 100 μg/ml, and six human cancer cell lines and a normal human cell line were used (see Table 10).
# [2] = test system: Human umbilical venal epithelial cell (HUVEC); assay: in vitro; details: HUVEC; for IC50: Homo sapiens
# Source text: as §1, §2
# [3] = test system: Human breast adenocarcinoma cell MCF7; assay: cells; details: for CC50: MCF7, read-out: LC50 (50% lethal concentration)
# Source text: as §1, §2
# [4] = in vitro; details: human
# Source text: as §1, §2
# [5] = test system: Human colon adenocarcinoma cell HT-29; assay: cells; details: for CC50: HT-29, read-out: LC50 (50% lethal concentration)
# Source text: as §1, §2
# [6] = test system: Human promyelocytic leukemia cell HL-60; assay: cells; details: for CC50: HL-60, read-out: LC50 (50% lethal concentration)
# Source text: as §1, §2
# [7] = test system: Human hepatocellular carcinoma cell HepG2; assay: cells; details: for CC50: HepG2, read-out: LC50 (50% lethal concentration)
# Source text: as §1, §2
# [8] = test system: Human lung carcinoma cell A549; assay: cells; details: for CC50: A549, read-out: LC50 (50% lethal concentration)
# Source text: as §1, §2
# [9] = MCF7, read-out: IC50 (50% inhibition concentration)
# [10] = HT-29, read-out: IC50 (50% inhibition concentration)
# [11] = U-937, read-out: IC50 (50% inhibition concentration)
# [12] = read-out: IC50 (50% inhibition concentration)
# [13] = HL-60, read-out: IC50 (50% inhibition concentration)
# [14] = HepG2, read-out: IC50 (50% inhibition concentration)
# [15] = A549, read-out: IC50 (50% inhibition concentration)
# [16] = HT-29, read-out: IC50 (50% inhibition concentration), HT-29
# [17] = U-937, read-out: IC50 (50% inhibition concentration), U937
# [18] = read-out: IC50 (50% inhibition concentration), HUVEC
# [19] = HL-60, read-out: IC50 (50% inhibition concentration), HL-60
# [20] = HepG2, read-out: IC50 (50% inhibition concentration), HepG2
# [21] = A549, read-out: IC50 (50% inhibition concentration), A549
# [22] = MCF7, read-out: IC50 (50% inhibition concentration), MCF-7
SMILES,CC50 [1] [µg/mL],LC50 (50% lethal concentration) [2] [µg/mL],CC50 [5] [µg/mL],CC50 [6] [µg/mL],CC50 [7] [µg/mL],CC50 [8] [µg/mL],CC50 [3] [µg/mL],"IC50 [6, 13] [µg/mL]",also measured
"CC(C)=CCC[C@]1(C)C[C@H](O)c2c(O)c3c(c(CC=C(C)C)c2O1)O[C@]12C(=C[C@@H]4CC1C(C)(C)O[C@]2(C/C=C(/C)C(=O)O)C4=O)C3=O (stereo in doubt) [Gh-2641-1, neogambogic acid]",1,4.3,,,,,,,"IC50 [3, 9]: 0.2 µg/mL"
"CC(C)=CCC[C@@]1(C)C=Cc2c(O)c3c(c(CC(O)C(C)(C)O)c2O1)O[C@]12C(=C[C@@H]4CC1C(C)(C)OC2(C/C=C(/C)C(=O)O)C4=O)C3=O (some centres unmarked) [Gh-1036, epiformoxanthone F]",0.81,,12,3.1,8.6,0.52,3.8,,CC50 [4]: 4.8 µg/mL
"C=C(C)C1CC[C@@]2(C)Oc3c(CC=C(C)C)c4c(c(O)c3[C@@H]1C2O)C(=O)C1=C[C@@H]2CC3C(C)(C)OC(C/C=C(/C)C(=O)O)(C2=O)[C@@]13O4 (stereo partly drawn) [Gh-1050, 3α-hydroxygambogellic acid]",2.3,,7.7,7,3.8,0.74,1,0.17,"CC50 [4]: 3.4 µg/mL; IC50 [5, 10]: 4.8 µg/mL; IC50 [1, 11]: 0.21 µg/mL; IC50 [2, 12]: 0.78 µg/mL; IC50 [7, 14]: 1.1 µg/mL; IC50 [8, 15]: 0.13 µg/mL; IC50 [3, 9]: 0.14 µg/mL"
"CC(C)=CCC[C@]1(C)C=Cc2c(O)c3c(c(CC(O)C(C)(C)O)c2O1)O[C@]12C(=C[C@@H]4CC1C(C)(C)OC2(C/C=C(/C)C(=O)O)C4=O)C3=O (some centres unmarked) [Gh-1052, formoxanthone F]",0.69,,5.7,3.4,4,2.5,2.4,,CC50 [4]: 3.1 µg/mL
"CC(C)=CCC[C@]1(C)C=Cc2c(O)c3c(c(CC=C(C)C)c2O1)O[C@]12C(=C[C@@H]4CC1C(C)(C)O[C@]2(C/C=C(/CO)C(=O)O)C4=O)C3=O [Gh-1601-A, 30-hydroxygambogic acid]",0.28,,0.77,3,4.1,6.6,4.4,,"IC50 [5, 16]: 0.17 µg/mL; IC50 [1, 17]: 0.09 µg/mL; IC50 [2, 18]: 0.19 µg/mL; IC50 [6, 19]: 0.56 µg/mL; IC50 [7, 20]: 1.3 µg/mL; IC50 [8, 21]: 0.11 µg/mL; IC50 [3, 22]: 0.72 µg/mL"
"CC(C)=CCC[C@@]1(C)C=Cc2c(O)c3c(c(CC=C(C)C)c2O1)O[C@]12C(=C[C@@H]4CC1C(C)(C)O[C@]2(C/C=C(/CO)C(=O)O)C4=O)C3=O [Gh-1602, 30-hydroxyepigambogic acid]",0.69,,4.2,3.3,3.5,3.7,4,,"IC50 [5, 16]: 0.94 µg/mL; IC50 [1, 17]: 0.14 µg/mL; IC50 [2, 18]: 0.25 µg/mL; IC50 [6, 19]: 1 µg/mL; IC50 [7, 20]: 1.3 µg/mL; IC50 [8, 21]: 0.4 µg/mL; IC50 [3, 22]: 0.27 µg/mL"
"CC(C)=CCC[C@]1(C)C=Cc2c(O)c3c(c(CC=C(C)C)c2O1)O[C@]12C(=C[C@@H]4CC1C(C)(C)O[C@]2(C/C=C(\C)C(=O)O)C4=O)C3=O [Gh-1641, isogambogic acid]",,1.3,,,,3,,8,
"CC(C)=CCC[C@@]1(C)C=Cc2c(O)c3c(c(CC=C(C)C)c2O1)O[C@]12C(=C[C@@H]4CC1C(C)(C)O[C@]2(C/C=C(\C)C(=O)O)C4=O)C3=O [Gh-1642, epiisogambogic acid]",,1.3,,,,,,6,
"CC(C)=CCc1c2c(c(O)c3c1O[C@]14C(=C[C@@H]5CC1C(C)(C)O[C@]4(C/C=C(\C)C=O)C5=O)C3=O)C=CC(C)(C)O2 [Gh-2501, isomorellin]",,1.8,4,4,,,,1,"IC50 [1, 11]: 0.9 µg/mL"
"CC(C)=CCC/C(C)=C/Cc1c(O)c(CC=C(C)C)c2c(c1O)C(=O)C1=C[C@@H]3CC4C(C)(C)O[C@](C/C=C(/C)C(=O)O)(C3=O)[C@@]14O2 [Gh-2505, gambogenic acid]",,2.3,,,,,,,
"C=C(C)[C@@H]1CC[C@@]2(C)CC1c1c(O)c3c(c(CC=C(C)C)c1O2)O[C@]12C(=C[C@@H]4CC1C(C)(C)O[C@]2(/C=C/C(C)C(=O)O)C4=O)C3=O (stereo partly drawn) [Gh-2507, β-epigambogellic acid]",,21.0,,,,,,0.2,
"C=C(C)C1CC[C@]2(C)C[C@H]1c1c(O)c3c(c(CC=C(C)C)c1O2)O[C@]12C(=C[C@@H]4CC1C(C)(C)O[C@]2(/C=C/C(C)C(=O)O)C4=O)C3=O (stereo partly drawn) [Gh-2508, β-gambogellic acid]",,5.4,,,,,,,
"C=C(C)[C@@H]1CC[C@@]2(C)CC1c1c(O)c3c(c(CC=C(C)C)c1O2)O[C@]12C(=C[C@@H]4CC1C(C)(C)O[C@]2(C/C=C(/C)C(=O)O)C4=O)C3=O [Gh-2603-1, epigambogellic acid]",3.1,,3.7,2.9,3.3,0.34,4.2,1,"IC50 [5, 10]: 1.6 µg/mL; IC50 [1, 11]: 1.3 µg/mL; IC50 [2, 12]: 0.26 µg/mL; IC50 [7, 14]: 1 µg/mL; IC50 [8, 15]: 0.036 µg/mL; IC50 [3, 9]: 2.2 µg/mL"
"C=C(C)C1CC[C@]2(C)C[C@H]1c1c(O)c3c(c(CC=C(C)C)c1O2)O[C@]12C(=CC4CC1C(C)(C)O[C@]2(C/C=C(/C)C(=O)O)C4=O)C3=O (some centres unmarked) [Gh-2603-2, gambogellic acid]",3.6,,3.9,2.4,3.5,0.47,4.2,0.93,"IC50 [5, 10]: 1.4 µg/mL; IC50 [1, 11]: 1.5 µg/mL; IC50 [2, 12]: 0.14 µg/mL; IC50 [7, 14]: 0.65 µg/mL; IC50 [8, 15]: 0.2 µg/mL; IC50 [3, 9]: 2.2 µg/mL"
"CC(C)=CCC[C@]1(C)C=Cc2c(O)c3c(c(CC=C(C)C)c2O1)O[C@]12C(=C[C@@H]4CC1C(C)(C)OC2(C/C=C(/C)C(=O)O)C4=O)C3=O [Gh-2605, gambogic acid]",,1.6,,,,,,,
"CC(C)=CCC[C@@]1(C)C=Cc2c(O)c3c(c(CC=C(C)C)c2O1)O[C@]12C(=C[C@@H]4CC1C(C)(C)O[C@]2(C/C=C(/C)C(=O)O)C4=O)C3=O [Gh-2606, epigambogic acid]",,1.4,2,,3,,,,"IC50 [8, 15]: 0.1 µg/mL"
"CC(C)=CCc1c2c(c(O)c3c1O[C@@]1(C)CCC4C3C1C4(C)C)C(=O)C1=C[C@@H]3CC4C(C)(C)O[C@](C/C=C(/C)C(=O)O)(C3=O)[C@@]14O2 [Gh-2607-1A, epiformoxanthone B]",,1.5,,,,,,,
"CC(C)=CCc1c2c(c(O)c3c1O[C@]1(C)CCC4[C@H]3C1C4(C)C)C(=O)C1=CC3CC4C(C)(C)O[C@](C/C=C(/C)C(=O)O)(C3=O)[C@@]14O2 [Gh-2607-B, formoxanthone B]",,1.6,1,,4,,,,"IC50 [5, 10]: 0.3 µg/mL; IC50 [1, 11]: 0.1 µg/mL; IC50 [2, 12]: 0.07 µg/mL; IC50 [8, 15]: 0.1 µg/mL; IC50 [3, 9]: 0.1 µg/mL"
"CC(C)=CCC/C(C)=C/Cc1c(O)c(CC=C(C)C)c2c(c1O)C(=O)C1=C[C@@H]3CC4C(C)(C)O[C@](C/C=C(\C)C(=O)O)(C3=O)[C@@]14O2 [Gh-2642, isogambogenic acid]",,11,,,,,,9,"IC50 [3, 9]: 3 µg/mL"
"CC(C)=CCc1c2c(c(O)c3c1O[C@]14C(=C[C@@H]5CC1C(C)(C)OC4(C/C=C(/C)C(=O)O)C5=O)C3=O)C=C[C@@](C)(CCC(O)C(C)(C)O)O2 (some centres unmarked) [Gh-3261, formoxanthone J]",0.31,,3.9,7,2.8,0.5,2.8,,CC50 [4]: 1.4 µg/mL
"CC(C)=CCc1c2c(c(O)c3c1O[C@]14C(=C[C@@H]5CC1C(C)(C)OC4(C/C=C(/C)C(=O)O)C5=O)C3=O)C=C[C@](C)(CCC(O)C(C)(C)O)O2 (some centres unmarked) [Gh-3271, epiformoxanthone J]",0.35,,5.8,17.1,4.6,0.51,0.62,,CC50 [4]: 1.5 µg/mL
"CC(C)=CCC/C(C)=C/Cc1c(O)c(CC=C(C)C)c2c(c1O)C(=O)C1=C[C@@H]3CC4C(C)(C)OC(CC=C(C)C)(C3=O)[C@@]14O2 [Gh-4301, desoxygambogenin]",> 100,1.3,,> 100,,,,,
